Reference: US6159994A, “Histamine H3 receptor ligands” (James Black Foundation, priority 1997, dated 2000)

Columns and labels:
[1] = target: T1, Histamine H3 receptor (guinea pig cortex membranes) (Cavia porcellus, UniProt Q9JI35); assay: Histamine H3 radioligand binding assay - guinea pig cortex; conditions: [3H]-R-α-methylhistamine 0.1 nM final, typical variance ±0.12 log units, read-out: pKI (binding assay) - cortex (converted)
T1 construct: The cortex was dissected, weighed and homogenised; from tissue; host or cells: guinea pig cerebral cortex membranes
Protocol: (§1) Data are analysed using GraphPad prism and the general equation for a competition curve with variable Hill slope (nH). [formula] where
(§2) X is the log concentration of competing compound,
(§3) Y is the binding obtained at each concentration of X,
(§4) pIC50 is the […] required to compete for half of the specific binding.
The IC50 is converted to the KI using the Cheng Prusoff equation,
IC50 is the concentration of competitor required to compete for half the specific binding,
L is the radioligand concentration used,
KD is the equilibrium dissociation constant for the radioligand determined by saturation experiments.
Histamine H3 radioligand binding assay--guinea pig cortex
Male Dunkin Hartley guinea pigs (200-300 g) were used. The whole brain was removed and immediately placed in ice-cold 20 mM Hepes-NaOH buffer (pH7.4 at 21±3° C.). The cortex was dissected, weighed and homogenised in ice-cold 20 mM Hepes-NaOH buffer (pH7.4 at 21±3° C.) (50 ml/guinea-pig cortex) using a polytron (Kinematica AG; PT-DA 3020/2TS, 3×3s). The homogenate was centrifuged at 100×g for 5 min and the supernatants pooled and stored at 4° C. The pellets were rehomogenised in fresh ice-cold buffer (80 ml) and recentrifuged (100×g for 5 min). The supernatants were pooled and pellets rehomogenised and recentrifuged (100×g for 5 min). All supernatants were pooled and centrifuged at 39,800×g for 12 min at 4° C. The final pellet was resuspended in 20 mM Hepes-NaOH buffer (pH7.4 at 21±3° C.) to a tissue concentration of 7.5 mg.ml^-1, using a teflon-in-glass homogeniser.
These were essentially identical to those used for the guinea pig ileum myenteric plexus assay described above, except that the final assay concentration of [^3 H]-R-α-methylhistamine was 0.1 nM. Typical variance in this assay is ±0.12 log units.

histamine H3 receptor = target: T2, histamine H3 receptor (Cavia porcellus, UniProt Q9JI35); assay: Guinea pig ileal longitudinal muscle, myenteric plexus functional assay (antagonism of R-(α)-methylhistamine inhibition of electrically-stimulated contraction); assay type: cell-based; conditions: guinea pig ileum; antagonist affinity from rightward shift of R-(α)-methylhistamine E/[A] curves (Schild); typical variance ±0.15 log units; read-out: pKB (functional assay) - ileum (converted)
T2 construct: the longitudinal muscle layer and adhering myenteric plexus was teased away; from tissue; host or cells: guinea pig ileum longitudinal muscle with adhering myenteric plexus (intact tissue strips)
Protocol: The biological activity of the compounds of the examples was measured using the ileal longitudinal muscle, myenteric plexus assay described by Paton and Aboo Zar (J. Physiol. 1968, 194, 13-33). Male Dunkin-Hartley guinea pigs (250-300 g) were employed. Briefly, a 50 cm portion of ileum proximal to the caecum was removed, after discarding the terminal 20 cm. Ileal segments (3 cm) were cleaned by passing Krebs-Henseleit buffer containing 3 μM mepyramine gently through the ileum using a Pasteur pipette (size: 13.8 cm length, 0.65 cm diameter). To avoid unnecessary damage to the tissue, Krebs-Henseleit buffer was passed through the ileal segment, while it was lying horizontally on a petri dish. Therefore, the ileum was not over-distended and the buffer flowed through with ease. Each segment was then passed over a Pasteur pipette and the longitudinal muscle layer and adhering myenteric plexus was teased away using moist cotton wool, by stroking tangentially away from the mesenteric attachment. The tissues were suspended in 20 ml organ baths containing Krebs-Henseleit buffer at 37±1° C. and gassed with […]. The tissues were ligated to two parallel stainless steel wires, situated between two platinum electrodes (0.76 cm length, 0.06 cm diameter). All measurements were recorded isometrically (Grass FTO3 transducer). Following an initial loading tension of 1 g, the tissues were stimulated with electrical pulses at a frequency of 0.1 lHz and a pulse duration of 0.5 msec, as described by Kosterlitz & Watt (Br. J. Pharmacol. 1968, 266-276). Initially, the tissues were stimulated at supramaximal (1.3 fold times maximal) voltage for a period of 30 min and then the tissues were washed and re-stimulated.A "sighter dose" of the selective histamine H3 -receptor agonist, R-(α)-methylhistamine (0.3 μM) (Arrang el al. Nature, 1987, 117-123), was administered. Upon generation of response, the "sighter dose" was removed from the tissues by "washout" (6 washes over 60 min) and during this period the electrical stimulation was switched off. The tissues were then re-stimulated and allowed to stabilise prior to the addition of drug treatments, which were allocated on a randomised block basis to the organ baths. Following the incubation period, a single cumulative E/[A] curve was obtained. The experimental E/[A] curve data was expressed as the percentage inhibition of the peak height of electrically-stimulated contraction. Antagonist affinity values were calculated from the degree of rightward shift of the R-(α)-methylhistamine E/[A] curves using Schild's methods (Arunlakshana & Schild Br. J. Pharmacol, 1959, 48-58). Typical variance in this assay is ±0.15 log units.

[2] = target: T3, Histamine H3 receptor (guinea pig ileum longitudinal muscle myenteric plexus membranes) (Cavia porcellus, UniProt Q9JI35); assay: Histamine H3 radioligand binding assay - guinea pig ileum; conditions: [3H]-R-α-methylhistamine (50 μl; 3 nM), 165 min, 21±3° C., pH7.4, typical variance ±0.12 log units, read-out: pKI (binding assay) - ileum (converted)
T3 construct: Guinea pig ileum longitudinal muscle myenteric plexus membranes; from tissue; host or cells: guinea pig ileum longitudinal muscle myenteric plexus membranes
Protocol: Histamine H3 radioligand binding assay--guinea pig ileum
Male Dunkin Hartley guinea pigs (200-300 g) were used. The small intestine was rapidly removed (cut ^- 5 cm from caecum and 5 cm from stomach) and placed in ice-cold 20 mM Hepes-NaOH buffer (pH7.4 at 21±3° C.). The tissue was cut into ^- 10 cm segments, flushed through with ice-cold 20 mM Hepes-NaOH buffer and placed in a beaker containing fresh buffer at 4° C. 10 cm segments of ileum were threaded onto a glass pipette and the longitudinal muscle myenteric plexus was peeled away from the circular muscle using damp cotton-wool. Longitudinal muscle myenteric plexus was immediately placed in ice-cold Viaspan® solution (^~ 100 ml for tissue from 3 guinea pigs) and placed in the refrigerator for 24 hours.
Pre-soaked tissue was weighed and minced with scissors. The tissue was then homogenised in Viaspan® using a polytron (Kinematica AG; PT-DA 3020/2TS, 3×^- 1-2s). 50 ml of 500 mM Tris HCl (pH6.9 at 21±3° C.) was added to the tissue and the mixture centrifuged at 39,800×g for 12 min at 4° C. The supernatant was discarded and rehomogenised in 100 ml ice-cold 20 mM Hepes-NaOH buffer (pH7.4 at 21±3° C.) using a teflon-in-glass homogeniser (setting 10; 3×). The homogenate was recentrifuged at 39,800×g and the pellet resuspended in 20 mM Hepes-NaOH buffer (pH7.4 at 21±3° C.), to a tissue concentration of 50 mg.ml^-1, using a polytron (Brinkman, PT10, 3×^~1 s).
Guinea pig ileum longitudinal muscle myenteric plexus membranes (400 μl) were incubated for 165 min at 21±3° C. in a final volume of 500 μl with 20 mM Hepes-NaOH buffer containing [^3 H]-R-α-methylhistamine (50 μl; 3 nM) and competing compound. Total and non-specific binding of [^3 H]-R-α-methylhistamine were defined using 50 μl of buffer and 50 μl of 10 μM thioperamide, respectively. The assay was terminated by rapid filtration through Whatman GF/B filters, presoaked (2 hr) in 0.1% polyethyleneimine, using a Brandell Cell Harvester. The filters were washed (3×3 ml) with ice-cold 50 mM Tris-HCl (pH6.9 at 21±3° C.), transferred into scintillation vials, 5 ml liquid scintillation cocktail was added and after 4 hours the bound radioactivity was determined by counting (4 min) in a Beckman liquid scintillation counter.
as §1, §2, §3, §4
The IC50 is converted to the KI using the Cheng Prusoff equation, […]
KD is the equilibrium dissociation constant for the radioligand determined by saturation experiments. […]

T1 sequence (Q9JI35 whole entry): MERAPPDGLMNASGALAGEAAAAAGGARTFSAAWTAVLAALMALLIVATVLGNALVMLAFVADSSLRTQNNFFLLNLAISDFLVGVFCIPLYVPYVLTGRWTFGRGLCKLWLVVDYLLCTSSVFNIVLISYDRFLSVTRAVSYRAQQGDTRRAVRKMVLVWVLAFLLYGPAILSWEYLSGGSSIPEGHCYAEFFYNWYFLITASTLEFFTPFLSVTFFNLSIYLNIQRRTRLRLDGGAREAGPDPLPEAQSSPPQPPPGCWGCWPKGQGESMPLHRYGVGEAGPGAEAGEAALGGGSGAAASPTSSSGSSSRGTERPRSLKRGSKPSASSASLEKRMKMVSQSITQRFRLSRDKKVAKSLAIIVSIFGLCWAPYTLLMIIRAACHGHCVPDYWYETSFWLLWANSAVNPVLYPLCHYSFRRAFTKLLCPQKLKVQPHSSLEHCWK
T3 sequence (Q9JI35 whole entry): as above
T2 sequence (Q9JI35 whole entry): as above

O=C1C(Cc2ccc(Cl)cc2)NS(=O)(=O)N1CCCCc1c[nH]cn1 (centres unmarked) [Example 7, 2-(4-(4-imidazolyl)butyl)-4-(4-chlorophenyl)methyl-1,2,5-thiadiazolidin-3-one-1,1-dioxide]
Ki [1]: 0.513 nM
Kb (histamine H3 receptor): 44.7 nM

O=S1(=O)NCCN1CCc1c[nH]cn1 [Example 2, 2-(2-(4-imidazolyl)ethyl)-1,2,5-thiadiazolidine-1,1-dioxide]
Ki [1]: 4170 nM
Kb (histamine H3 receptor): 240 nM

O=S1(=O)NC(Cc2ccc(Cl)cc2)CN1CCCCCc1c[nH]cn1 (centres unmarked) [Example 1, 4-(4-chlorophenyl)methyl-2-(5-(4-imidazolyl)pentyl)-1,2,5-thiadiazolidine-1,1-dioxide]
Ki [1]: 46.8 nM
Kb (histamine H3 receptor): 123 nM
Ki [2]: 42.7 nM

O=S1(=O)NCCN1CCCc1c[nH]cn1 [Example 3, 2-(3-(4-imidazolyl)propyl)-1,2,5-thiadiazolidine-1,1-dioxide]
Ki [1]: 2.57 nM
Kb (histamine H3 receptor): 355 nM
Ki [2]: 13.5 nM

C[C@H]1CN(CCc2c[nH]cn2)[S+]([O-])N1 (stereo partly drawn) [Example 6, 2-(4-imidazolyl)ethyl-4(S)-methyl-1,2,5-thiadiazolidine-1-oxide]
Ki [1]: 43.7 nM
Kb (histamine H3 receptor): 891 nM
Ki [2]: 1660 nM

O=S1(=O)N(CCCc2c[nH]cn2)CCN1Cc1ccccc1 [Example 5, 5-benzyl-2-(3-(4-imidazolyl)propyl)-1,2,5-thiadiazolidine-1,1-dioxide]
Ki [1]: 6310 nM
Kb (histamine H3 receptor): > 10000 nM
Ki [2]: 2950 nM

O=C1CNS(=O)(=O)N1CCCc1c[nH]cn1 [Example 4, 2-(3-(4-imidazolyl)propyl)-1,2,5-thiadiazolidin-3-one-1,1-dioxide]
Ki [1]: 115 nM
Kb (histamine H3 receptor): 1780 nM

O=C1CNS(=O)(=O)N1CCCCc1c[nH]cn1 [Example 8, 2-(4-(4-imidazolyl)butyl)-1,2,5-thiadiazolidin-3-one-1,1-dioxide]
Ki [1]: 501 nM
Kb (histamine H3 receptor): 2400 nM
